Laboratory results published in patent US11401271B2, “Fused heterocyclic compound, pyrazole-ring-containing fused heterocyclic compound, agricultural composition containing thereof, and method of using the composition” (SOUTH CHINA AGRICULTURAL UNIVERSITY, priority 2017, dated 2022).
Where a name gives a salt, the structure may show the parent alone. Read-outs that look alike come from different tables or passages of the source.

Tests used:
Test in all cases: whole plant or invertebrate
Type in all cases: in vivo
Solenopsis invicta = settings: water test tube poison-feeding; for Solenopsis invicta Mortality (%) 24 h / Solenopsis invicta Mortality (%) 72 h / Solenopsis invicta Mortality (%) 100 ppm 24 h / Solenopsis invicta Mortality (%) 100 ppm 72 h: 100 ppm; for mortality at 100 ppm: Solenopsis invicta
Description: (4) Insecticidal Activity on Solenopsis invicta.
As a hymenoptera pests and a social insect, Solenopsis invicta is one of the most destructive invasive organisms. Solenopsis invicta were used as test objects and tested by using a water test tube poison-feeding method.
Operation process: Samples were weighed accurately, and respectively added with 200 μL of dimethyl sulfoxide to prepare 10 g/L mother liquor which was diluted into a concentration of 100 ppm with a mixed aqueous solution containing 0.05% of Tween-80 and 5% of honey during the test. […] The raising test tube was placed in a raising box horizontally, and a small amount of ham sausages were added to the raising test tube as food to raise the Solenopsis invicta at a constant temperature of 25° C. After being treated for 24 hours and 72 hours, a number of live Solenopsis invicta and a number of dead Solenopsis invicta were counted, and a mortality (%) was calculated according to a formula that mortality (%)=(number of live Solenopsis invicta in the control group−number of treated live Solenopsis invicta)/number of live Solenopsis invicta in the control group*100%.

Spodoptera exigua = settings: for Spodoptera exigua Mortality (%) / Spodoptera exigua Mortality (%) 500 ppm: 500 ppm, 2nd-instar larvae, leaf immersion feeding; for mortality at 500 ppm: Spodoptera exigua, 24 h, read-out: Spodoptera exigua Mortality (%) 500 ppm; for Spodoptera exigua Mortality (%) 500 ppm: 24 hours
Description: (2) Insecticidal Activity on 2nd-Instar Larvae of Spodoptera exigua.
Spodoptera exigua is a lepidoptera pest with a chewing mouthpart and is a common vegetable pest. The 2nd-instar larvae of Spodoptera exigua were used as test objects and tested by using a leaf immersion feeding method.
(§1) Operation process: Samples were weighed accurately, and respectively added with 200 μL, of dimethyl sulfoxide to prepare 10 g/L mother liquor which was diluted into a concentration of 500 ppm with an aqueous solution containing 0.05% of Tween-80 during the test. A hole puncher with a diameter of 1.0 cm was used to make cleaned cabbage leaves into leaf discs. The leaf discs were immersed in a liquid medicine, taken out after 5 seconds, air-dried naturally, and transferred into a clean vessel. About 35 2nd -instar larvae of Spodoptera exigua were put into the vessel and fed at a constant temperature of 28° C. Each concentration was repeated 3 times, and an aqueous solution containing 0.05% of Tween-80 was used as a control group. After being treated for 24 hours, a number of dead Spodoptera exigua was counted, and a mortality (%) was calculated according to a formula that mortality (%)=(number of live larvae in the control group −number of treated live larvae)/number of live larvae in the control group * 100%.

Plutella xylostella = settings: for Plutella xylostella Mortality (%) / Plutella xylostella Mortality (%) 500 ppm: 500 ppm, 2nd-instar larvae, leaf immersion feeding; for mortality at 500 ppm: Plutella xylostella, read-out: Plutella xylostella Mortality (%) 500 ppm
Description: (1) Insecticidal Activity on 2nd-Instar Larvae of Plutella xylostella.
Plutella xylostella (L.) is a lepidoptera pest with a chewing mouthpart and is a common vegetable pest. The 2nd-instar larvae of Plutella xylostella were used as test objects and tested by using a leaf immersion feeding method.
as §1, with “μL” for “μL,”, “2nd-instar” for “2nd -instar”, “Plutella xylostella” for “Spodoptera exigua”, “group−number” for “group −number”, “group*100%.” for “group * 100%.”

Aphis craccivora = settings: for Aphis craccivora Mortality (%) / Aphis craccivora Mortality (%) 500 ppm: 500 ppm, wingless adults; for Aphis craccivora Mortality (%): immersion 5 seconds, counted after 24 hours; for mortality at 500 ppm: Aphis craccivora, 24 h, read-out: Aphis craccivora Mortality (%) 500 ppm; for Aphis craccivora Mortality (%) 500 ppm: impregnation method, 24 hours
Description: (3) Insecticidal Activity on Aphid Adults.
Aphid is a homoptera pest with a piercing-sucking mouthpart and is a common vegetable pest. Aphis craccivora were taken as test objects and tested by using an impregnation method.
Operation process: Samples were weighed accurately, and respectively added with 200 μL of dimethyl sulfoxide to prepare 10 g/L mother liquor which was diluted into a concentration of 500 ppm with an aqueous solution containing 0.05% of Tween-80 during the test. After the wingless Aphis craccivora adults stably sucked on bean sprouts, the wingless Aphis craccivora adults together with the bean sprouts were immersed into a liquid medicine with a concentration of 500 ppm, taken out after 5 seconds, air-dried naturally, transferred into a clean vessel, and fed at a constant temperature of 23° C. Each concentration was repeated 3 times, and an aqueous solution containing 0.05% of Tween-80 was used as a control group. After being treated for 24 hours, a number of dead Aphis craccivora was counted, and a mortality (%) was calculated according to a formula that mortality (%)=(number of live Aphis craccivora in the control group−number of treated live Aphis craccivora)/number of live Aphis craccivora in the control group*100%.

[1] = 24 h, read-out: Solenopsis invicta Mortality (%) 100 ppm 24 h, 100 ppm, 24 h
[2] = 72 h, read-out: Solenopsis invicta Mortality (%) 100 ppm 72 h, 100 ppm, 72 h

SMILES | Solenopsis invicta Mortality (%) 24 h (Solenopsis invicta; 24 h) [%] | Solenopsis invicta Mortality (%) 72 h (Solenopsis invicta; 72 h) [%] | Spodoptera exigua Mortality (%) (Spodoptera exigua) | Plutella xylostella Mortality (%) (Plutella xylostella) | Aphis craccivora Mortality (%) (Aphis craccivora) | further results
COC(=O)CC1(C(=O)OC)Nc2c([S+]([O-])C(F)(F)F)c(CN)nn2-c2c(Cl)cc(C(F)(F)F)cc21 (stereo not drawn) [d-9] | 21 | 77 | 79 | 82 | 96 | –
COC(=O)C1Nc2c([S+]([O-])C(F)(F)F)c(C(F)(F)F)nn2-c2cncc(Cl)c21 (stereo not drawn) [b-87, 6-chloro-2-trifluoromethyl-3-trifluoromethylsulfinyl-4,5-dihydropyrazole[1,5-α]quinazoline[4,3-e]pyridine-5-methyl formate] | 14 | 100 | 95 | 95 | 100 | –
C=CC1(CC#N)Nc2c([S+](C)[O-])c(C#N)nn2-c2c(Cl)cc(C(F)(F)F)cc21 (stereo not shown) [Compound C22] | – | – | – | – | – | mortality at 100 ppm (Solenopsis invicta; [1]): 20%; mortality at 100 ppm (Solenopsis invicta; [2]): 70%; mortality at 500 ppm (Spodoptera exigua): 94%; mortality at 500 ppm (Plutella xylostella): 99%; mortality at 500 ppm (Aphis craccivora): 89%
CC(=O)C1(CC(F)(F)F)Nc2c([S+]([O-])C(F)(F)F)c(C#N)nn2-c2c(Cl)cc(C(F)(F)F)cc21 (stereo not drawn) [d-48] | 26 | 100 | 90 | 96 | 100 | –
CC=CC1Nc2c([S+]([O-])C(F)(F)F)c(C(F)(F)F)nn2-c2c(Cl)cc(C(F)(F)F)cc21 (stereo not drawn) [d-119] | 26 | 83 | 90 | 89 | 92 | –
C=CC1(CC#N)Nc2c([S+]([O-])CC)c(C#N)nn2-c2c(Cl)cc(C(F)(F)F)cc21 (stereo not shown) [Compound C21] | – | – | – | – | – | mortality at 100 ppm (Solenopsis invicta; [1]): 19%; mortality at 100 ppm (Solenopsis invicta; [2]): 99%; mortality at 500 ppm (Spodoptera exigua): 95%; mortality at 500 ppm (Plutella xylostella): 90%; mortality at 500 ppm (Aphis craccivora): 100%
COC(=O)C1(CC(F)(F)F)Nc2c([S+]([O-])C(F)(F)F)c(C#N)nn2-c2c(Cl)cc(C(F)(F)F)cc21 (stereo not drawn) [d-35] | 30 | 100 | 89 | 90 | 100 | –
N#Cc1nn2c(c1[S+]([O-])C(F)(F)F)NC(C#N)c1cc(C(F)(F)F)cc(Cl)c1-2 (stereo not drawn) [d-82] | 25 | 90 | 89 | 95 | 100 | –
C=CC1(C(F)(F)F)Nc2c(Br)c(C#N)nn2-c2c(Cl)cc(C(F)(F)F)cc21 (stereo not shown) [Compound C7] | – | – | – | – | – | mortality at 100 ppm (Solenopsis invicta; [1]): 38%; mortality at 100 ppm (Solenopsis invicta; [2]): 100%; mortality at 500 ppm (Spodoptera exigua): 100%; mortality at 500 ppm (Plutella xylostella): 100%; mortality at 500 ppm (Aphis craccivora): 100%
COC(=O)CC1(C(=O)OC)Nc2c([S+]([O-])C(F)(F)F)c(C#N)nn2-c2ncc(C(F)(F)F)cc21 (stereo not shown) [a-1] | – | – | – | – | – | Solenopsis invicta Mortality (%) 100 ppm 24 h (Solenopsis invicta; 24 h): 20%; Solenopsis invicta Mortality (%) 100 ppm 72 h (Solenopsis invicta; 72 h): 100%; Spodoptera exigua Mortality (%) 500 ppm (Spodoptera exigua): 100%; Plutella xylostella Mortality (%) 500 ppm (Plutella xylostella): 100%; Aphis craccivora Mortality (%) 500 ppm (Aphis craccivora): 100%
COC(=O)CC1(C(=O)OC)Nc2c([S+]([O-])C(F)(F)F)c(C#N)nn2-c2cc(C(F)(F)F)c(Cl)cc21 (stereo not shown) [e-19] | 31 | 90 | 100 | 100 | 100 | –
N#Cc1nn2c(c1[S+]([O-])C(F)(F)F)NC(CC(=O)C(F)(F)F)(C(F)(F)F)c1cc(C(F)(F)F)cnc1-2 (stereo not shown) [a-63] | – | – | – | – | – | Solenopsis invicta Mortality (%) 100 ppm 24 h (Solenopsis invicta; 24 h): 24%; Solenopsis invicta Mortality (%) 100 ppm 72 h (Solenopsis invicta; 72 h): 100%; Spodoptera exigua Mortality (%) 500 ppm (Spodoptera exigua): 100%; Plutella xylostella Mortality (%) 500 ppm (Plutella xylostella): 100%; Aphis craccivora Mortality (%) 500 ppm (Aphis craccivora): 100%
CNC(=O)CC1Nc2c(OC(F)(F)F)c(C#N)nn2-c2cncc(Cl)c21 (stereo not shown) [b-123] | 24 | 100 | 95 | 99 | 100 | –
CC(=O)C1(CC(=O)C(F)(F)F)Nc2c([S+]([O-])C(F)(F)F)c(C#N)nn2-c2ncc(C(F)(F)F)cc21 (stereo not shown) [a-37] | – | – | – | – | – | Solenopsis invicta Mortality (%) 100 ppm 24 h (Solenopsis invicta; 24 h): 15%; Solenopsis invicta Mortality (%) 100 ppm 72 h (Solenopsis invicta; 72 h): 99%; Spodoptera exigua Mortality (%) 500 ppm (Spodoptera exigua): 96%; Plutella xylostella Mortality (%) 500 ppm (Plutella xylostella): 100%; Aphis craccivora Mortality (%) 500 ppm (Aphis craccivora): 100%
CC(=O)Nc1cc2n(n1)-c1cnccc1C(F)(CC(F)(F)F)N2 (stereo not shown) [Compound A39] | – | – | – | – | – | mortality at 100 ppm (Solenopsis invicta; [1]): 24%; mortality at 100 ppm (Solenopsis invicta; [2]): 100%; mortality at 500 ppm (Spodoptera exigua): 100%; mortality at 500 ppm (Plutella xylostella): 100%; mortality at 500 ppm (Aphis craccivora): 100%
N#Cc1nn2c(c1[S+]([O-])C(F)(F)F)NC(C(O)CO)(C(F)(F)F)c1cc(C(F)(F)F)cc(Cl)c1-2 (stereo not shown) [Compound C57] | – | – | – | – | – | mortality at 100 ppm (Solenopsis invicta; [1]): 20%; mortality at 100 ppm (Solenopsis invicta; [2]): 89%; mortality at 500 ppm (Spodoptera exigua): 76%; mortality at 500 ppm (Plutella xylostella): 78%; mortality at 500 ppm (Aphis craccivora): 80%
COC(=O)CC1(C(=O)OC)Nc2c([S+]([O-])C(F)(F)F)c(C#N)nn2-c2cc(C(F)(F)F)cc(Cl)c21 (racemic) [c-8] | 20 | 100 | 100 | 100 | 100 | –
